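Each compound was tested at five concentrations against cells in 96-well plates for 48 hours. The concentration for 50% growth inhibition is given as GI50.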 The source made the active and inactive calls. No stated cut-off is given here; in the data, active = GI50 up to about 1.1 µM and inactive = higher.
How the values were obtained:
Experiment in all cases: DTP human tumour cell line panel, 48 h
[1] = test system: DMS-114
[2] = test system: DMS-273
[3] = test system: HOP-18
[4] = test system: KM-20L2
[5] = test system: RXF 631
[6] = test system: BT-549
[7] = test system: MDA-MB-435
[8] = test system: MDA-N
[9] = test system: T47D

Question: Which results are given for C#CCCCCC#CC1CCCC1C1=CC(=O)c2ccccc21 (stereo not drawn)?
Answer: GI50 [1]: 1.48 µM (inactive); GI50 [2]: 3.49 µM (inactive); GI50 [3]: 12.5 µM (inactive); GI50 [4]: 10.3 µM (inactive)

Question: Which results are given for Cc1ccccc1NC(=O)CSc1nnc(-c2ccc(/N=C\c3ccc(Cl)cc3)cc2)o1?
Answer: GI50 [1]: > 100 µM (inactive); GI50 [2]: > 100 µM (inactive); GI50 [3]: > 100 µM (inactive); GI50 [4]: > 100 µM (inactive)

Question: How did the GI50 [1] turn out when N#CC(OC1OC(COC2OC(CO)C(O)C(O)C2O)C(O)C(O)C1O)c1ccccc1 (stereo not drawn) was run?
Answer: > 225 µM (inactive)

Question: What about the GI50 [2] of the same compound?
Answer: > 225 µM (inactive)

Question: And the GI50 [3]?
Answer: > 225 µM (inactive)

Question: And the GI50 [4]?
Answer: > 225 µM (inactive)

Question: What does the source list for CC(=O)Nc1ccc(C(=O)NN2C(=O)C(Cl)C2c2cc(Br)cc(Br)c2O)cc1 (stereo not drawn)?
Answer: GI50 [1]: > 100 µM (inactive); GI50 [2]: > 100 µM (inactive); GI50 [3]: > 100 µM (inactive); GI50 [4]: > 100 µM (inactive)

Question: With CCCCc1c2c(nc3c1CCCC3=O)CCCC2 as the compound, how does the GI50 [1] read?
Answer: > 100 µM (inactive)

Question: What about the GI50 [2] of the same compound?
Answer: > 100 µM (inactive)

Question: What about the GI50 [4] of the same compound?
Answer: 20 µM (inactive)

Question: CCOC(=O)C(N=C(c1ccccc1)c1ccccc1)N(C(=O)OC(C)(C)C)C(=O)OC(C)(C)C (stereo not drawn) was tested. Which GI50 [1] did it give?
Answer: > 100 µM (inactive)

Question: What about the GI50 [4] of the same compound?
Answer: > 100 µM (inactive)

Question: For COC(c1cccc(C(O)(C(F)(F)F)C(F)(F)F)c1)(C(F)(F)F)C(F)(F)F, which GI50 [1] is on record?
Answer: 18.6 µM (inactive)

Question: What about the GI50 [2] of the same compound?
Answer: 19.3 µM (inactive)

Question: And the GI50 [3]?
Answer: 18.2 µM (inactive)

Question: What about the GI50 [4] of the same compound?
Answer: 16.9 µM (inactive)

Question: Which GI50 [1] does the source give for O=C1C(c2ccccc2)=[N+]([O-])c2cc([N+](=O)[O-])c(/C(Cl)=C/c3ccccc3)cc21 here?
Answer: 8.97 µM (inactive)

Question: And the GI50 [2]?
Answer: 18.1 µM (inactive)

Question: And the GI50 [3]?
Answer: 24.1 µM (inactive)

Question: What about the GI50 [5] of the same compound?
Answer: 6.7 µM (inactive)

Question: Which GI50 [3] does the source give for Cc1cccc(C)c1NC(=O)CCC(=O)NC(N)=S here?
Answer: > 100 µM (inactive)

Question: And the GI50 [4]?
Answer: > 100 µM (inactive)

Question: Which results are given for C=C(C(=C)P(=S)(c1ccccc1)c1ccccc1)P(=S)(c1ccccc1)c1ccccc1?
Answer: GI50 [1]: 35.2 µM (inactive); GI50 [2]: > 100 µM (inactive); GI50 [3]: > 100 µM (inactive); GI50 [4]: > 100 µM (inactive)

Question: Which GI50 [6] does the source give for CC(=O)Nc1ccccc1S(=O)(=O)c1c(-c2c(C)c(Cl)c(C)c(Cl)c2C)noc1C here?
Answer: 33.9 µM (inactive)

Question: And the GI50 [7]?
Answer: > 100 µM (inactive)

Question: What about the GI50 [8] of the same compound?
Answer: 37.2 µM (inactive)

Question: And the GI50 [9]?
Answer: 68.1 µM (inactive)

Question: O=C1CSC(Cc2nc3ccccc3[nH]2)=N1 was tested. Which GI50 [1] did it give?
Answer: 13.1 µM (inactive)

Question: What about the GI50 [2] of the same compound?
Answer: 15.4 µM (inactive)

Question: And the GI50 [3]?
Answer: 23.4 µM (inactive)

Question: What about the GI50 [4] of the same compound?
Answer: 14.1 µM (inactive)

Question: For COc1cc(Nc2cc(Cl)cc(Cl)c2)nc(N)n1, which GI50 [6] is on record?
Answer: 17.1 µM (inactive)

Question: What about the GI50 [7] of the same compound?
Answer: 24.5 µM (inactive)

Question: What about the GI50 [8] of the same compound?
Answer: 27.1 µM (inactive)

Question: What about the GI50 [9] of the same compound?
Answer: 24.6 µM (inactive)

Question: Which results are given for CC1=C(Br)C(=O)c2c(O)ccc(O)c2C1=O?
Answer: GI50 [6]: 0.71 µM (active); GI50 [7]: 0.204 µM (active); GI50 [8]: 0.251 µM (active); GI50 [9]: 0.412 µM (active)

Question: Which results are given for CC(Cc1ccc(Cl)cc1Cl)NO (stereo not drawn)?
Answer: GI50 [6]: > 100 µM (inactive); GI50 [7]: > 100 µM (inactive); GI50 [8]: > 100 µM (inactive); GI50 [9]: > 100 µM (inactive)

Question: What does the source list for O=C1NC2(CCNCC2)Oc2ccccc21?
Answer: GI50 [6]: > 100 µM (inactive); GI50 [7]: > 100 µM (inactive); GI50 [8]: > 100 µM (inactive); GI50 [9]: > 100 µM (inactive)

Question: CC1=C(O)C(=O)[C@@H]2O[C@@H]2C1=O was tested. Which GI50 [1] did it give?
Answer: 10.3 µM (inactive)

Question: And the GI50 [2]?
Answer: 22.8 µM (inactive)

Question: And the GI50 [3]?
Answer: 12.5 µM (inactive)

Question: And the GI50 [4]?
Answer: 17.2 µM (inactive)

Question: Which GI50 [6] does the source give for CCOC(=O)/C(C(=O)Nc1ccc(Cl)cc1)=C(/N)N1CCOCC1 here?
Answer: > 100 µM (inactive)

Question: What about the GI50 [7] of the same compound?
Answer: > 100 µM (inactive)

Question: And the GI50 [8]?
Answer: > 100 µM (inactive)

Question: And the GI50 [9]?
Answer: > 100 µM (inactive)

Question: Which GI50 [6] does the source give for COc1cc(Nc2cnc3cc(F)c(F)cc3n2)cc(OC)c1OC here?
Answer: > 100 µM (inactive)

Question: And the GI50 [7]?
Answer: > 100 µM (inactive)

Question: What about the GI50 [8] of the same compound?
Answer: > 100 µM (inactive)

Question: What about the GI50 [9] of the same compound?
Answer: > 100 µM (inactive)

Question: With CSCC[C@@H](NC(=O)[C@H](CC(C)C)NC(=O)C(Cc1cnc[nH]1)NC(=O)CNC(=O)[C@@H](NC(=O)[C@H](C)NC(=O)[C@H](Cc1c[nH]c2ccccc12)NC(=O)[C@H](CCC(N)=O)NC(=O)[C@@H](N)CC(N)=O)C(C)C)C(N)=O (stereo partly drawn) as the compound, how does the GI50 [1] read?
Answer: > 100 µM (inactive)

Question: What about the GI50 [2] of the same compound?
Answer: > 100 µM (inactive)

Question: What about the GI50 [3] of the same compound?
Answer: > 100 µM (inactive)

Question: What about the GI50 [4] of the same compound?
Answer: > 100 µM (inactive)

Question: Cc1cc(NS(=O)(=O)c2ccc(NC(=O)c3cccc4cc5ccccc5nc34)cc2)no1 was tested. Which GI50 [1] did it give?
Answer: 18.3 µM (inactive)

Question: And the GI50 [2]?
Answer: 13.8 µM (inactive)

Question: And the GI50 [4]?
Answer: 27.7 µM (inactive)

Question: And the GI50 [5]?
Answer: 17.7 µM (inactive)

Question: What does the source list for COC(=O)c1ccc(/N=N/N(C)CO)cc1?
Answer: GI50 [1]: > 100 µM (inactive); GI50 [2]: 63.1 µM (inactive); GI50 [4]: > 100 µM (inactive)

Question: With Oc1ccc(/C=N/N=c2\[nH][nH]/c(=N\N=C\c3ccc(O)cc3O)c3ccccc23)c(O)c1 as the compound, how does the GI50 [6] read?
Answer: 0.21 µM (active)

Question: What about the GI50 [7] of the same compound?
Answer: 0.314 µM (active)

Question: And the GI50 [8]?
Answer: 0.228 µM (active)

Question: And the GI50 [9]?
Answer: 0.271 µM (active)

Question: For O=C(OC1C#CCSCC#C/C=C\1)c1ccc2c(c1)C(=O)c1ccccc1C2=O (stereo not drawn), which GI50 [6] is on record?
Answer: 22.6 µM (inactive)

Question: What about the GI50 [7] of the same compound?
Answer: > 100 µM (inactive)

Question: What about the GI50 [8] of the same compound?
Answer: > 100 µM (inactive)

Question: What about the GI50 [9] of the same compound?
Answer: > 100 µM (inactive)

Question: For C/C(=C1/N=C(c2ccccc2)OC1=O)c1ccccc1, which GI50 [6] is on record?
Answer: > 100 µM (inactive)

Question: And the GI50 [7]?
Answer: 87.3 µM (inactive)

Question: And the GI50 [8]?
Answer: > 100 µM (inactive)

Question: And the GI50 [9]?
Answer: > 100 µM (inactive)

Question: How did the GI50 [6] turn out when Cc1cc(S(=O)(=O)Nc2nc3ccccc3nc2-c2cccc([N+](=O)[O-])c2)c(S)cc1Cl was run?
Answer: 38.7 µM (inactive)

Question: What about the GI50 [7] of the same compound?
Answer: 19.8 µM (inactive)

Question: What about the GI50 [8] of the same compound?
Answer: 20.5 µM (inactive)

Question: What about the GI50 [9] of the same compound?
Answer: 17.2 µM (inactive)

— ChEMBL document CHEMBL1201862, “PubChem BioAssay data set” (2004)
